Values joined by “and” are separate entries in the source; they are usually repeats but may differ in a detail not shown here. Equal values may be shown once.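 Each compound was tested at five concentrations against cells in 96-well plates for 48 hours. Here, GI50 denotes the concentration required for 50% inhibition of growth. TGI marks complete inhibition of growth.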
Tests used:
Assay in all cases: NCI-60 cell line screen, 48 h
ACHN renal = test system: ACHN renal
HCT-116 colon = test system: HCT-116 colon
HS 578T breast = test system: HS 578T breast
HT29 colon = test system: HT29 colon
M14 melanoma = test system: M14 melanoma
MALME-3M melanoma = test system: MALME-3M melanoma
NCI-H522 lung = test system: NCI-H522 lung
OVCAR-8 ovarian = test system: OVCAR-8 ovarian
RPMI-8226 leukemia = test system: RPMI-8226 leukemia
RXF 393 renal = test system: RXF 393 renal

Compound	GI50 (ACHN renal)	TGI (ACHN renal)	GI50 (HCT-116 colon)	TGI (HCT-116 colon)	TGI (HS 578T breast)	TGI (HT29 colon)	GI50 (M14 melanoma)	TGI (M14 melanoma)	GI50 (MALME-3M melanoma)	TGI (MALME-3M melanoma)	TGI (NCI-H522 lung)	GI50 (OVCAR-8 ovarian)	TGI (RPMI-8226 leukemia)	GI50 (RXF 393 renal)	TGI (RXF 393 renal)	GI50 (HS 578T breast)	GI50 (HT29 colon)	GI50 (NCI-H522 lung)	GI50 (RPMI-8226 leukemia)	TGI (OVCAR-8 ovarian)
CC[C@@]1(O)C(=O)OCc2c1cc1n(c2=O)Cc2cc3c(Cl)c4c(cc3nc2-1)OCO4	< 0.001 µM	0.00185 µM and 0.0109 µM	1.1 µM	> 100 µM	> 100 µM	7.85 µM	< 0.001 µM	4.02 µM	0.087 µM	31.4 µM	7.58 µM and 60.5 µM	< 0.001 µM	4.38 µM	0.0371 µM and 0.014 µM	2.22 µM and 0.23 µM	–	–	–	–	–
COC(=O)c1c2c(c(C)[n+]([O-])c1C)C(=O)C=C(NCc1ccc(Br)cc1)C2=O	0.575 µM	2.1 µM	0.173 µM	0.667 µM	8.05 µM	> 100 µM	0.0442 µM	1.04 µM	0.154 µM	0.389 µM	4.11 µM	–	5.1 µM	1.09 µM	2.54 µM	2.4 µM	0.339 µM	1.23 µM	1.47 µM	–
CC(=O)Nc1cc(C(c2ccccc2)c2ccccc2)cc(C(c2ccccc2)c2ccccc2)c1C	8.71 µM	> 100 µM	3.28 µM	> 100 µM	> 100 µM	> 100 µM	> 100 µM	> 100 µM	9.59 µM	> 100 µM	> 100 µM	> 100 µM	7.67 µM	27.5 µM	> 100 µM	28 µM	8.26 µM	6.39 µM	1.88 µM	> 100 µM
Cc1ccc(-c2c3c(N)nc(-c4ccncc4)nc3nc3c2c(C)nn3-c2ccccc2)cc1	> 37.5 µM	> 37.5 µM	2.95 µM	11.1 µM	> 37.5 µM	> 37.5 µM	13.8 µM	> 37.5 µM	7.73 µM	16.2 µM	> 37.5 µM	3.63 µM	> 37.5 µM	3.88 µM	33 µM	5.92 µM	11.5 µM	> 37.5 µM	18.6 µM	> 37.5 µM
Cc1ccc2c(n1)C(=O)C(Cl)=C(Nc1ccc(N3CCN(C)CC3)cc1)C2=O	1.75 µM	3.13 µM	1.67 µM	3.19 µM	7.49 µM	4.92 µM	1.84 µM	3.32 µM	1.62 µM	2.99 µM	4.78 µM	1.85 µM	7.28 µM	1.67 µM	3.05 µM	2.47 µM	2.19 µM	1.86 µM	2.68 µM	3.4 µM
c1cc2ccc3cc2cc1CNCCOCCNCc1ccc2ccc(cc2c1)CNCCOCCNC3	> 100 µM	> 100 µM	> 100 µM	> 100 µM	> 100 µM	> 100 µM	> 100 µM	> 100 µM	> 100 µM	> 100 µM	> 100 µM	> 100 µM	–	> 100 µM	> 100 µM	> 100 µM	> 100 µM	> 100 µM	–	> 100 µM
O=S1CCN(Cc2ccc(-c3ccc4ncnc(Nc5ccc(OCc6ccccc6)c(F)c5)c4c3)o2)CC1	0.757 µM	> 25 µM	9.96 µM	> 25 µM	> 25 µM	> 25 µM	6.26 µM	> 21.6 µM	7.08 µM	> 22.6 µM	> 20.1 µM	11.4 µM	> 25 µM	4.45 µM	13.2 µM	8.89 µM	5.21 µM	0.984 µM	8.71 µM	> 25 µM
Cc1ccc(C)c(NC(=O)/C(=N\N)C(c2cnc3ccc([N+](=O)[O-])cc3n2)[N+](=O)[O-])c1 (centres undefined)	–	40.1 µM	–	> 100 µM	> 100 µM	> 100 µM	–	> 100 µM	–	> 100 µM	> 100 µM	–	> 100 µM	–	> 100 µM	–	–	–	–	> 100 µM
Cc1ccn2c(-c3csc(Nc4cccc(O)c4)n3)c(C)nc2c1	0.812 µM	> 100 µM	0.397 µM	15.1 µM	29.3 µM	18 µM	0.359 µM	18 µM	0.444 µM	25 µM	3.22 µM	0.611 µM	5.02 µM	1.27 µM	7.26 µM	1.17 µM	4.13 µM	0.32 µM	0.422 µM	44.9 µM
O=C(O)CC1C(=O)OC2C3COC(=O)c4cc(O)c(O)c(O)c4-c4c(cc(O)c(O)c4O)C(=O)OC2C(OC(=O)c2cc(O)c(O)c4c2C1C(O)C(=O)O4)C(OC(=O)c1cc(O)c(O)c(O)c1)O3 (centres undefined)	–	> 100 µM	–	27.8 µM	> 100 µM	26.4 µM	–	> 100 µM	–	> 100 µM	46.6 µM	–	> 100 µM	–	> 100 µM	–	–	–	–	67.2 µM
O=C(NCCSSCCNC(=O)/C(Cc1ccc(O)c(Br)c1)=N/O)/C(Cc1ccc(O)c(Br)c1)=N/O	–	5.77 µM	–	5.98 µM	> 50 µM	> 21.4 µM	–	7.22 µM	–	7.44 µM	4.26 µM	–	5.35 µM	–	2 µM	–	–	–	–	> 50 µM
Nc1nc2c(c(=O)[nH]1)N=C(COP(=O)(O)OP(=O)(O)O)CN2	–	> 100 µM	–	> 100 µM	> 100 µM	> 100 µM	–	> 100 µM	–	> 100 µM	> 100 µM	–	> 100 µM	–	> 100 µM	–	–	–	–	> 100 µM
CCOC(=O)C1=C(C)NC(C)=C(C(=O)OCC)C1c1cc(Br)c(O)c(OC)c1	5.56 µM	22 µM	3.97 µM	13.5 µM	9.47 µM	18.2 µM	3.05 µM	10.1 µM	10.6 µM	32.7 µM	20.1 µM	4.47 µM	41.4 µM	1.98 µM	6.05 µM	2.54 µM	4.72 µM	4.22 µM	4.52 µM	38.9 µM
Cc1cn(C2CC(N=[N+]=[N-])C(CO)O2)c(=O)[nH]c1=O (centres undefined)	> 1000 µM	> 1000 µM	–	422 µM	> 1000 µM	> 1000 µM	> 1000 µM	> 1000 µM	> 1000 µM	> 1000 µM	> 1000 µM	–	184 µM	–	–	–	–	> 1000 µM	20.4 µM	> 1000 µM
CC[C@@]1(OC(=O)C(N)CCC(=O)O)C(=O)OCc2c1cc1n(c2=O)Cc2cc3ccccc3nc2-1 (some centres undefined)	–	0.561 µM	–	> 100 µM	> 100 µM	> 100 µM	–	1.2 µM	–	2.79 µM	2.03 µM	–	2.94 µM	–	0.757 µM	–	–	–	–	10.7 µM
Cc1ccc(-n2nnc3c(sc4ccccc43)c2=O)cc1	4.17 µM	> 100 µM	3.1 µM	> 100 µM	8.71 µM	> 100 µM	> 100 µM	> 100 µM	8.4 µM	> 100 µM	> 100 µM	6.1 µM	> 100 µM	16.8 µM	> 100 µM	2.18 µM	3.59 µM	63.5 µM	24 µM	> 100 µM
O=C(O)c1ccccc1-c1ccccc1C(=O)Nc1ccc2c(c1)Cc1ccccc1-2	–	> 100 µM	–	35.9 µM	> 100 µM	70.1 µM	–	41.6 µM	–	> 100 µM	55.2 µM	–	70.4 µM	–	> 100 µM	–	–	–	–	> 100 µM
COc1ccc(C2=NNC(c3cc(Cc4ccc(O)c(C5CC(c6ccc(OC)cc6)=NN5)c4)ccc3O)C2)cc1 (centres undefined)	5.56 µM	> 100 µM	4.11 µM	15.9 µM	68 µM	> 100 µM	10.4 µM	38.3 µM	48.9 µM	> 100 µM	23.4 µM	6.36 µM	> 100 µM	4.18 µM	48.3 µM	5.58 µM	32.2 µM	3.64 µM	9.89 µM	> 100 µM
C/C(=C\CCc1ccsc1)CC/C=C(\C)CCCN1CCN(CCO)CC1	4.67 µM	17.4 µM	2.71 µM	9.26 µM	8.07 µM	5.01 µM	2.05 µM	4.2 µM	1.87 µM	3.73 µM	4.71 µM	4.84 µM	4.57 µM	1.82 µM	5.42 µM	2.7 µM	2.04 µM	1.91 µM	1.92 µM	18.4 µM
O=C1NC(=O)C(N2CCc3ccccc32)=C1c1ccc(Cl)cc1	> 25 µM	> 25 µM	> 10.2 µM	> 16.6 µM	> 25 µM	> 25 µM	> 25 µM	> 25 µM	> 25 µM	> 25 µM	> 25 µM	> 25 µM	> 25 µM	> 25 µM	> 25 µM	> 25 µM	> 25 µM	> 25 µM	> 25 µM	> 25 µM
O=C1c2cccc3cccc(c23)C(=O)N1CC#Cc1ccc2c3c(cccc13)C(=O)N(CCN1CCNCC1)C2=O	2.75 µM	7.96 µM	2.12 µM	4.79 µM	33.7 µM	3.96 µM	2.53 µM	6.19 µM	1.84 µM	3.7 µM	5.04 µM	2.18 µM	4.49 µM	2.7 µM	10.4 µM	11.2 µM	2 µM	2.03 µM	2.12 µM	5.16 µM
O=c1c(-c2ccc3c(c2)OCO3)coc2c(CO)c(O)ccc12	1.82 µM	5.34 µM	2 µM	4.94 µM	7.12 µM	44.8 µM	3.2 µM	14.8 µM	1.57 µM	3.47 µM	20.8 µM	4.42 µM	53.6 µM	0.941 µM	2.29 µM	2.28 µM	16.9 µM	4.55 µM	3.64 µM	30.5 µM
Oc1[nH]c2ccc(Cl)cc2c1/C=c1/ccc2c(c1)N=C(c1ccc(C(F)(F)F)cc1)N=2	3.24 µM	15.4 µM	1.98 µM	5.02 µM	6.86 µM	3.94 µM	1.67 µM	3.34 µM	2.34 µM	6.57 µM	3.24 µM	3.17 µM	5.44 µM	1.88 µM	3.76 µM	2.4 µM	1.78 µM	1.66 µM	2.21 µM	11.4 µM
CCN1CCN(CC(=O)Nc2nc3ccc(NCc4ccc(C)cc4)cc3s2)CC1	6.06 µM	12.3 µM	1.53 µM	5.32 µM	15.9 µM	3.48 µM	1.14 µM	2.19 µM	1.04 µM	2.43 µM	11.5 µM	6.66 µM	3.34 µM	1.99 µM	8.5 µM	5.12 µM	1.27 µM	4.45 µM	1.09 µM	16.5 µM
CC1(C)CC(=O)C(CC2C(=O)c3ccccc3C2=O)C(=O)C1C(=O)C(=O)Nc1cccc2ccc(O)cc12 (centres undefined)	–	> 100 µM	–	> 100 µM	> 100 µM	> 100 µM	–	> 100 µM	–	> 100 µM	> 100 µM	–	> 100 µM	–	–	–	–	–	–	> 100 µM
O=c1[nH]cc(CO)c(=O)[nH]1	> 100 µM	> 100 µM	> 100 µM	> 100 µM	> 100 µM	> 100 µM	> 100 µM	> 100 µM	> 100 µM	> 100 µM	> 100 µM	> 100 µM	–	> 100 µM	> 100 µM	> 100 µM	> 100 µM	> 100 µM	–	> 100 µM
O=NNc1ccc(Sc2ccc3ccccc3c2)cn1	–	> 100 µM	–	40.6 µM	> 100 µM	> 100 µM	–	60.2 µM	–	35.6 µM	54 µM	–	–	–	4.12 µM	–	–	–	–	> 100 µM
Cc1ccc(C2NC(=S)N3C(c4ccc(C)cc4)NC(=S)N23)cc1 (centres undefined)	10.1 µM	21.7 µM	4 µM	13.4 µM	25 µM	10.2 µM	3.01 µM	11.2 µM	12.4 µM	28.1 µM	8.54 µM	7.36 µM	–	3.27 µM	14.1 µM	4.74 µM	2.58 µM	1.94 µM	–	25.1 µM
